The values below are quoted from earlier work in patent publication US4203975A, “Psychopharmacological peptides suitable for therapeutic administration” (Akzona Incorporated, priority 1977, dated 1980).

For data set [1] the following is noted: prior art.
The subject of data set [2] is rats. The conditions noted are these: rats from which the hypophysis or the posterior lobe thereof has been removed.

Take `NC(=O)CC[C@@H]1NC(=O)[C@H](Cc2ccccc2)NC(=O)[C@H](Cc2ccc(O)cc2)NC(=O)[C@@H](N)CSSC[C@@H](C(=O)N2CCC[C@H]2C(=O)N[C@@H](CCCN=C(N)N)C(=O)NCC(N)=O)NC(=O)[C@H](CC(N)=O)NC1=O` [vasopressin]: in data set [1], the pressor activity entry is given as “extremely powerful pressor activity”.

For (Lys)-vasopressin zinc tannate, the “inhibition of the extinction of the conditioned flight response” value in data set [2] is given as “capable of inhibiting the extinction of the conditioned flight response”.
